Reference: US8716246B2, “Azuvirin peptides” (The Regents of the University of California, priority 2011, dated 2014)
Entries after “also recorded” stand apart in the source; their conditions may differ. Square brackets hold non-standard residues; d marks the D form. Ends that are not written are not given here. Peptide text beside a SMILES is read from it. * marks the point of attachment. Oic = O=C(O)[C@@H]1C[C@@H]2CCCC[C@@H]2N1; Cha = N[C@@H](CC1CCCCC1)C(=O)O; Tle = CC(C)(C)[C@H](N)C(=O)O; Nicotinoyl = O=C(c1cccnc1)*; Acm = CC(=O)NC*

Tested on: Lewis lung carcinoma (LLC)
Experiment: Artificial metastasis model: i.v. Lewis lung carcinoma plus local thoracic irradiation, lung tumor nodules counted
Format: in vivo, C57BL/6 mice
Conditions: for radiosensitizing effect in artificial metastasis model (in words): with radiation therapy (4 x 4 Gy), peptide or equimolar nicotinamide i.p. from day 4 after i.v. LLC
Description: (§1) The AzV-36-Nic conjugate was tested in vivo for its ability to radiosensitize Lewis lung carcinoma (LCC) in an artificial metastasis model. Briefly, C57BL/6 mice (8 weeks old) were intravenously injected with 5×10^5 cells of syngeneic LLC. Various treatments were initiated 4 days later, after cancer engraftment. In general, each animal received intraperitoneally a total of 500 μg (˜10 mg/kg) of peptide in 4 daily doses 60 mins before local thoracic irradiation (4 Gy). Animals were sacrificed on the 14th day of the experiment and lung tumor nodules were counted.
as §1, with “Animal experiments.” for “The AzV-36-Nic conjugate was tested in vivo for its ability to radiosensitize Lewis lung carcinoma (LCC) in an artificial metastasis model.”, “min” for “mins”
Animal experiments. C57BL/6 gnotobiotic mice (8 weeks old) were obtained from the UCLA AALAC accredited Department of Radiation Oncology Facility and intravenously injected with 5×10^5 cells of syngeneic LLC. Various treatments were initiated 4 days later, after cancer engraftment. In general, each animal received intraperitoneally a total of 500 μg (˜25 mg/kg) of peptide (or equimolar amount of nicotinamide) in 4 daily doses 60 min before local thoracic irradiation (0 or 4 Gy, total dose: 4.4=16 Gy) that was delivered using an Atomic Energy of Canada cesium gamma irradiator with a dose rate of approximately 0.6 Gy/min with the rest of the body shielded. Prior to irradiation animals were anesthetized by intraperitoneal injection of ketamine/xylazine mixture. Animals were sacrificed on the 14th day of the experiment and lung tumor nodules were counted. All experiments were approved by the UCLA Animal Care and Use Committee and conformed to local and national guidelines.

Row | Compound | radiosensitizing effect in artificial metastasis model (in words) | radiosensitizing effect in artificial metastasis model (in words) (listed as Nic) | tumor colonies lower / radiation efficacy improved versus radiation alone (Example 1: 500 μg (~10 mg/kg) total i.p. in 4 daily doses 60 min before 4 Gy thoracic irradiation, equimolar controls, nodules day 14)
1 | CC(=O)NCSC[C@H](NC(=O)[C@H](CC1CCCCC1)NC(=O)[C@H](CC1CCCCC1)NC(=O)[C@@H](CCCCN)NC(=O)[C@@H](N)Cc1ccc(O)cc1)C(=O)N[C@H](C(=O)N[C@@H](CC1CCCCC1)C(=O)N1[C@H](C(=O)N[C@H](CCCNC(=N)N)C(=O)N[C@@H](Cc2c[nH]cn2)C(=O)N[C@@H](CCCNC(=N)N)C(=O)N[C@H](C(=O)N[C@@H](CC2CCCCC2)C(=O)N[C@@H](CSCNC(C)=O)C(=O)N[C@H](CCCCN)C(N)=O)[C@@H](C)O)C[C@@H]2CCCC[C@@H]21)C(C)(C)C [AzV36-L] (H-Y[dK][Cha][Cha]C(Acm)[Tle][Cha][Oic][dR]HRT[Cha]C(Acm)[dK]-NH2; N-terminus assumed) | no or minimal radiosensitizing effect; also recorded: only marginally improved radiation efficacy; also recorded: ineffective | – | –
2 | NC(=O)c1cccnc1 [nicotinamide, reference compound] | no or minimal radiosensitizing effect; also recorded: only marginally improved radiation efficacy | ineffective | –
3 | AzV-36-Nic: Example 1: AzV-36 conjugated with nicotinic acid via amide bond; linear, 15 residues; probably AzV36-NicL (Y[dK](Nicotinoyl)[Cha][Cha]C[Tle][Cha][Oic][dR]HRT[Cha]C[dK]-NH2; not fully specified (bridges); printed as YkNic-Cha-Cha-Cys-Tle-Cha-Oic-rHRT-Cha-Cys-k-CONH; cysteine pairing not given here) | – | – | 3-10 fold
